Reference: PMC6627454, “Size and Flexibility Define the Inhibition of the H3N2 Influenza Endonuclease Enzyme by Calix[n]arenes” (Antibiotics, 2019)

System: PA endonuclease
Assay: not given
Details: PA endonuclease, in vitro assays only; read-out: Inhibition Activity IC50; cited from earlier work

Which IC50 does the source give for O=c1[nH]cncc1O [5-hydroxypyrimidin-4(3H)-one] here?
Its IC50 is 0.15 µM.

Which IC50 does the source give for O=C(O)c1c[nH]cc(O)c1=O [5-hydroxy-4-pyridone-3-carboxy acid] here?
Its IC50 is 3.23 µM.

Same assay, conditions: PA endonuclease; read-out: Inhibition Activity IC50; cited from earlier work

For O=C1c2c(O)c(=O)ccn2N([C@@H]2c3ccccc3SCc3c2ccc(F)c3F)[C@@H]2COCCN12 [Baloxavir Acid], which IC50 is on record?
The IC50 was 0.00023 µM.

Same assay, conditions: in vitro assay, viral PA polymerase unit; read-out: IC50; cited from earlier work

With O=C1c2c(O)c(=O)ccn2N([C@@H]2c3ccccc3SCc3c2ccc(F)c3F)[C@@H]2COCCN12 [Baloxavir Acid] as the compound, how does the IC50 read?
The IC50 was 0.0025 µM.

System: influenza virus
Assay: not given
Parameters: method as in PMID 30184455
Details: clinical trials, compared to oseltamivir; cited from earlier work

Which “reduction in viral loads” value does the source give for COC(=O)OCOc1c2n(ccc1=O)N([C@@H]1c3ccccc3SCc3c1ccc(F)c3F)[C@@H]1COCCN1C2=O [Baloxavir Marboxil] here?
Its value is “greater reduction in viral loads”.

Biological target: H3N2 influenza PA endonuclease (Influenza A virus, UniProt P31343)
Assay: PA endonuclease inhibition assay (λ-DNA digestion, agarose gel electrophoresis)
Type: biochemical, Influenza A/Victoria/3/1975 (H3N2)
Details: 0.5 µg λ-DNA, PA endonuclease 0.5 mg/mL, 1 h at 37 °C, 1 mM MnCl2, pH 8; 3 measurements
Description: The digestion activity of the purified PA endonuclease was quantified using agarose gel electrophoresis. A concentration range of PA endonuclease (0.5 mg/mL to 0.5 µg/mL) was mixed with 0.5 µg of λ-DNA (Takara, Japan) in buffer at a final concentration of 20 mM Tris HCl pH 8, 100 mM NaCl, 1 mM MnCl2, 10 mM β-mercaptoethanol. After one hour of incubation at 37 °C, the samples were deposited on ethidium bromide treated agarose gel 0.6% and run during 90 minutes at 75 V. The gel was then scanned (Figure S2). 100 µM solutions of each macrocyclic molecules (Scheme 1) were mixed with 0.5 µg of buffered λ-DNA. This mixture was then combined with the PA endonuclease enzyme and incubated for 1 hour at 37 °C. The samples were deposited on agarose gel 0.6% previously mixed with ethidium bromide and run during 90 minutes at 75 V, after which the gel was scanned. Digestion activity was plotted as a function of inhibitor concentration by quantifying the intensity of the digested bands with ImageJ software. The IC50 values were calculated as in our work on endonuclease inhibition. The intensity of λ-DNA bands was subtracted from negative control (λ-DNA lane) and then normalized from the positive control (λ-DNA and PA protein lane without inhibitor).
100 µM of each macrocyclic molecules β-CDsul, SC[n]a, SC[n]b, and SC[n]c (Figure 1) have been mixed to 0.5 µg of λ-DNA in a buffer at final concentration of 20 mM Tris HCl pH 8, 100 mM NaCl, 1 mM MnCl2, 10 mM β-mercaptoethanol.
The mixture was then mixed with the PA endonuclease enzyme at 0.5 mg/mL and incubated for 1 h at 37 °C.
The samples have been deposited on agarose gel 0.6% previously mixed with ethidium bromide and run over 90 min at 75 V. The gel was then scanned on the ChemiDoc XRS system (Bio-Rad).
The digestion activity is then plotted as a matter of inhibitor concentration by quantifying the intensity of the digested bands with ImageJ software.

Which IC50 does the source give for O=S(=O)(O)CCCOc1c2cccc1Cc1cccc(c1OCCCS(=O)(=O)O)Cc1cccc(c1OCCCS(=O)(=O)O)Cc1cccc(c1OCCCS(=O)(=O)O)Cc1cccc(c1OCCCS(=O)(=O)O)Cc1cccc(c1OCCCS(=O)(=O)O)Cc1cccc(c1OCCCS(=O)(=O)O)Cc1cccc(c1OCCCS(=O)(=O)O)C2 [SC8b] here?
Its IC50 is 14 ± 2.2 µM.

With O=S(=O)(O)c1cc2c(O)c(c1)Cc1cc(S(=O)(=O)O)cc(c1O)Cc1cc(S(=O)(=O)O)cc(c1O)Cc1cc(S(=O)(=O)O)cc(c1O)Cc1cc(S(=O)(=O)O)cc(c1O)Cc1cc(S(=O)(=O)O)cc(c1O)C2 [SC6a] as the compound, how does the IC50 read?
The IC50 was 11.2 ± 3.6 µM.

For O=S(=O)(O)c1cc2c(O)c(c1)Cc1cc(S(=O)(=O)O)cc(c1O)Cc1cc(S(=O)(=O)O)cc(c1O)Cc1cc(S(=O)(=O)O)cc(c1O)C2 [SC4a, para-sulfonato-calix[4]arene], which IC50 is on record?
The IC50 was over 100 µM.

For O=S(=O)(O)CCCOc1c2cccc1Cc1cccc(c1OCCCS(=O)(=O)O)Cc1cccc(c1OCCCS(=O)(=O)O)Cc1cccc(c1OCCCS(=O)(=O)O)Cc1cccc(c1OCCCS(=O)(=O)O)Cc1cccc(c1OCCCS(=O)(=O)O)C2 [SC6b], which IC50 is on record?
The IC50 was over 100 µM.

Which IC50 does the source give for O=S(=O)(O)CCCOc1c2cc(S(=O)(=O)O)cc1Cc1cc(S(=O)(=O)O)cc(c1OCCCS(=O)(=O)O)Cc1cc(S(=O)(=O)O)cc(c1OCCCS(=O)(=O)O)Cc1cc(S(=O)(=O)O)cc(c1OCCCS(=O)(=O)O)Cc1cc(S(=O)(=O)O)cc(c1OCCCS(=O)(=O)O)Cc1cc(S(=O)(=O)O)cc(c1OCCCS(=O)(=O)O)Cc1cc(S(=O)(=O)O)cc(c1OCCCS(=O)(=O)O)Cc1cc(S(=O)(=O)O)cc(c1OCCCS(=O)(=O)O)C2 [SC8c] here?
The IC50 was 18.7 ± 0.7 µM.

With O=P(O)(O)Oc1c2cccc1Cc1cccc(c1O)Cc1cccc(c1OP(=O)(O)O)Cc1cccc(c1O)C2 [C4diP, Calix[4]arene dihydroxyphosphonic acid] as the compound, how does the IC50 read?
The IC50 was over 100 µM.

For O=S(=O)(O)CCCOc1c2cccc1Cc1cccc(c1OCCCS(=O)(=O)O)Cc1cccc(c1OCCCS(=O)(=O)O)Cc1cccc(c1OCCCS(=O)(=O)O)C2 [SC4b], which IC50 is on record?
Its IC50 is over 100 µM.

With O=S(=O)(O)CCCOc1c2cc(S(=O)(=O)O)cc1Cc1cc(S(=O)(=O)O)cc(c1OCCCS(=O)(=O)O)Cc1cc(S(=O)(=O)O)cc(c1OCCCS(=O)(=O)O)Cc1cc(S(=O)(=O)O)cc(c1OCCCS(=O)(=O)O)C2 [SC4c] as the compound, how does the IC50 read?
Its IC50 is over 100 µM.

For O=S(=O)(O)c1cc2c(O)c(c1)Cc1cc(S(=O)(=O)O)cc(c1O)Cc1cc(S(=O)(=O)O)cc(c1O)Cc1cc(S(=O)(=O)O)cc(c1O)Cc1cc(S(=O)(=O)O)cc(c1O)Cc1cc(S(=O)(=O)O)cc(c1O)Cc1cc(S(=O)(=O)O)cc(c1O)Cc1cc(S(=O)(=O)O)cc(c1O)C2 [SC8a, para-sulfonato-calix[8]arene], which IC50 is on record?
The IC50 was 6.4 ± 1.4 µM.

With O=S(=O)(O)CCCOc1c2cc(S(=O)(=O)O)cc1Cc1cc(S(=O)(=O)O)cc(c1OCCCS(=O)(=O)O)Cc1cc(S(=O)(=O)O)cc(c1OCCCS(=O)(=O)O)Cc1cc(S(=O)(=O)O)cc(c1OCCCS(=O)(=O)O)Cc1cc(S(=O)(=O)O)cc(c1OCCCS(=O)(=O)O)Cc1cc(S(=O)(=O)O)cc(c1OCCCS(=O)(=O)O)C2 [SC6c] as the compound, how does the IC50 read?
The IC50 was over 100 µM.

For O=S(=O)(O)OC[C@H]1O[C@@H]2O[C@H]3[C@H](OS(=O)(=O)O)[C@@H](OS(=O)(=O)O)[C@@H](O[C@H]4[C@H](OS(=O)(=O)O)[C@@H](OS(=O)(=O)O)[C@@H](O[C@H]5[C@H](OS(=O)(=O)O)[C@@H](OS(=O)(=O)O)[C@@H](O[C@H]6[C@H](OS(=O)(=O)O)[C@@H](OS(=O)(=O)O)[C@@H](O[C@H]7[C@H](OS(=O)(=O)O)[C@@H](OS(=O)(=O)O)[C@@H](O[C@H]8[C@H](OS(=O)(=O)O)[C@@H](OS(=O)(=O)O)[C@@H](O[C@H]1[C@H](OS(=O)(=O)O)[C@H]2OS(=O)(=O)O)O[C@@H]8COS(=O)(=O)O)O[C@@H]7COS(=O)(=O)O)O[C@@H]6COS(=O)(=O)O)O[C@@H]5COS(=O)(=O)O)O[C@@H]4COS(=O)(=O)O)O[C@@H]3COS(=O)(=O)O [CD, Sulfated β-cyclodextrin, reference compound], which IC50 is on record?
The IC50 was over 100 µM.

Same assay, conditions: macrocycle at 100 µM

For O=S(=O)(O)c1cc2c(O)c(c1)Cc1cc(S(=O)(=O)O)cc(c1O)Cc1cc(S(=O)(=O)O)cc(c1O)Cc1cc(S(=O)(=O)O)cc(c1O)C2 [SC4a, para-sulfonato-calix[4]arene], which “inhibitory effect on PA endonuclease” value is on record?
The value was “neither SC4 and its derivatives nor C4diP show any inhibitory effects”.

Which “inhibitory effect on PA endonuclease” value does the source give for O=P(O)(O)Oc1c2cccc1Cc1cccc(c1O)Cc1cccc(c1OP(=O)(O)O)Cc1cccc(c1O)C2 [C4diP, Calix[4]arene dihydroxyphosphonic acid] here?
The value was “neither SC4 and its derivatives nor C4diP show any inhibitory effects”.
